Reference: patent US20110224214A1, “PROCESS FOR PREPARING POLYMORPH” (SANOFI-AVENTIS U.S. LLC, priority 2008, published 2011)
“Also recorded” adds a separate entry of the source.

Columns and labels:
[1] = molecular target: peripheral-type benzodiazepine receptors (Homo sapiens, UniProt P30536); details: cited from earlier work
[2] = stability profile of the crystalline form; assay type: physicochemical
[3] = impurity profile by HPLC after annealing; assay type: physicochemical; details: annealed at 80° C. for 1 hour
Experimental: 4.0 g of drug substance were dissolved in 200 mL of a 50/50 (by volume) mixture of DCM and EtOH at 20° C. The mixture was stirred for about 1 hour. The resulting clear solution was spray dried in a Buchi B290 Mini Spray Dryer by pumping the solution through a 0.7 mm nozzle (commercially available from Buchi) at approximately 2 to 3 mL/minute. The system was operated at an inlet gas temperature of 100° C. and an outlet gas temperature of approximately 70° C. The solvent was removed to isolate the solid (approximately 3.0 g).
The HPLC method parameters utilized in Example 4 were as follows: System HP 1050, column-Waters C8 Symmetry Shield 5 um (4.6×150 mm), Mobile phase (“A”): 0.05% formic acid in water, Mobile phase (“B”): 0.05% formic acid in acetonitrile, injection volume: 10 μl, wavelength: 258 nm, and flow rate: 0.8 mL/minute. A gradient method was used according to the time table below.

[4] = polymorphic stability during wet granulation (XRPD); assay type: physicochemical; details: wet granulation of Example 6, dried at 50° C. for 2 hours
Experimental: The sample prepared according the Example 5, above was used to prepare a wet granulation formulation with the following composition: […]
The drug substance product of Example 5, lactose, microcrystalline cellulose (Avicel®, available from FMC BioPolymer, Philadelphia, Pa.), and sodium starch glycolate were pre-blended by screening five times with a 20 mesh screen. For the granulating fluid, the hydroxypropylmethylcellulose was dissolved in hot water at 5% concentration then cooled to 20° C. The sodium lauryl sulfate was dissolved in the cooled granulating fluid at 1.5% concentration. Approximately 50% water (relative to the weight of total solids) was used to prepare the granulation; the granulating fluid was added dropwise to the premixed powders while mixing in a mortar and pestle. The granulation was dried at 50° C. for 2 hours, and then ground in a mortar and pestle prior to analysis.
XRPD patterns were obtained with a Bruker D8® ADVANCE X-ray powder diffractometer using copper K-alpha radiation. The instrument was equipped with parallel beam optics, and the tube voltage and amperage were set to 40 kV and 40 mA, respectively. Samples were scanned at a rate of 1.0 degree/minute from 2 to 40 degrees in angle 2-theta.

peripheral-type benzodiazepine receptors, sequence (P30536 whole entry): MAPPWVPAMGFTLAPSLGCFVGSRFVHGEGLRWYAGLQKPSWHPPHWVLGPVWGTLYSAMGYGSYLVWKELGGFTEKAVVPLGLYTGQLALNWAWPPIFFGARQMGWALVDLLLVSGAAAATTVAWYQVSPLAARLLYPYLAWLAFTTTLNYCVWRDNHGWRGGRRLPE

Structure (SMILES) | affinity for the peripheral-type benzodiazepine receptors [1] | stability profile to support use in a pharmaceutical product [2] | changes in the impurity profile after the annealing process (HPLC) [3] | conversion of Form II to crystalline Form I during the wet granulation process (XRPD) [4]
CN(C)C(=O)Cc1nn(-c2ccccc2)c(=O)c2c1c1ccc(Cl)cc1n2C [7-Chloro-N,N,5-trimethyl-4-oxo-3-phenyl-3,5-dihydro-4H-pyridazino[4,5-b]indole-1-acetamide] | high affinity |  |  | 
CN(C)C(=O)Cc1nn(-c2ccccc2)c(=O)c2c1c1ccc(Cl)cc1n2C [Form II, 7-chloro-N,N,5-trimethyl-4-oxo-3-phenyl-3,5-dihydro-4H-pyridazino[4,5-b]indole-1-acetamide] |  | sufficient stability profile | no changes in the impurity profile | no evidence of the Form II solid converting to crystalline Form I; also recorded: stable with respect to wet granulation
